According to patent publication US20060154236A1, “Computer-assisted analysis” (priority 2004, published 2006):
Like-named read-outs stand apart in the source and are kept apart here. Residues, ends and D or L forms follow the SMILES beside them. *: point of attachment. Cbz = O=C(OCc1ccccc1)*

Experiments:
p53 and cFos = assay: Single-cell analysis of nuclear p53 vs cFos intensity; format: cell-based, human; conditions: HeLa, 20 hrs, FIG. 34
Text: FIG. 34 is a single-cell analysis showing differing patterns of dose-dependent p53 and cFos responses to different drugs. A. Scatter plot of average nuclear p53 intensity vs. average cFos intensity in a typical control well and representative image. The bright cells at the top of the image are in mitosis. B. Dose-dependent increases in response to MG132 shown in heat maps are correlated in scatter plots and images (orange nuclei). C. Dose-dependent increases in response to camptothecin shown in heat maps are anti-correlated in scatter plots and images. The black (cFos) and green (p53) heat map values for the highest dose reflect the contribution of apoptotic cells with negligible p53 and cFos nuclear staining.
Extensions of cytological profiling to reflect dependencies among descriptors will allow more sophisticated analysis of drug responses at a systems level. For example, both p53 and cFos, a transcription factor involved in MAP-kinase signalling, are involved in cell stress responses, but the interrelationship of the p53 and MAP-kinase pathways is poorly understood (B. Kaina, Biochem Pharmacol 66:1547 (Oct. 15, 2003); incorporated herein by reference). […]

[1] = tested on: HeLa (human cancer) cells; assay: Cytological dose-response profiling by automated fluorescence microscopy (KS statistic z-scores, 93 descriptors); format: cell-based; conditions: for response of compound profile (heat plot): 13-point titration
Description: The known drug set was chosen to cover common mechanisms of toxicity or therapeutic action in cancer and other diseases, and to include several groups with a common target (macromolecule or pathway) but unrelated structures. We analyzed thirteen 3-fold dilutions of each drug, covering a final concentration range on cells from micromolar to picomolar. (Table 3 and Materials & Methods). HeLa (human cancer) cells were cultured in 384-well plates to near confluence, treated with drugs for 20 hrs, fixed, and stained with fluorescent probes for various cell components and processes. We chose 11 distinct probes that covered a range of cell biology, multiplexing a DNA stain and two antibodies per well (the probe sets are: (SC35, anillin), (α-tubulin, actin), (phospho-p38, phospho-ERK), (p53, cFos), (phospho-CREB, calmodulin)). Using automated fluorescence microscopy, we collected images of up to ˜8000 cells from each well. 26 wells on each plate were treated only with DMSO to generate a control population. The experiment was performed twice in parallel to provide a replicate dataset. Image segmentation procedures were used to automatically identify nuclei and nuclear organelles, and cytoplasmic regions were approximated as an annulus surrounding each identified nucleus (FIG. 31A). For each cell, region, and probe, a set of descriptors was measured. These included measures of size, shape, and intensity, as well as ratios of intensities between regions (93 descriptors total, Table S3).
For profiling studies, it is useful to reduce each population of descriptor values to a single number. […] We devised a measure based on the Kolmogorov-Smirnov (KS) statistic, allowing nonparametric comparison of experimental and control distributions from the same plate (FIGS. 31B and 35). […] In particular, the relationship between z-score and the original physical measure may be non-linear.
Cell culture. 20 hours before compound addition, Hela cells grown in […] dishes were trypsinized, resuspended in DMEM supplemented with 10% FCS and 10 ug/mL penicillin/streptomycin, and plated in 384-well plates at an initial density of 3,000 cells per well, 40 uL per well. Compounds were purchased from Sigma (St. Louis, MO), Calbiochem (EMD Biosciences, San Diego, Calif.) and Tocris (Elliksville, MO) and are listed in Table 2. Compound stocks were prepared in DMSO and then arrayed on 384-well plates in 16 consecutive 1:3 serial dilutions in DMSO as outlined in Table 3. The highest and two lowest dilutions (rows A, 0 and P) were not used for subsequent analysis as the wells due to persistent edge effects, leaving us with a series of 13 dilutions. Each stock was diluted 16-fold in warmed culture medium, and 8 μl of this solution was added to the plated cells, resulting in a 96-fold final dilution. All conditions were performed in duplicate in separate plates. Cells were incubated at 37° C. for 20 hours, then fixed in 3% formaldehyde in PBS. All liquid handling was performed using a programmed TekBench (TekCel, Hopkinton, Mass.).
Markers. Five sets of markers were stained by standard immunofluorescence methods in this study.

[2] = tested on: HeLa (human cancer) cells; assay: Hierarchical clustering of compound profiles by titration-invariant similarity score (TISS); format: cell-based
Text: When comparing drug mechanism, changes in specificity, and thus phenotype, are relevant but changes in affinity, and thus PEC, are not. […] We developed a titration-invariant similarity score (TISS) to allow comparison between dose-response profiles independent of starting dose.
Titration-invariant similarity score (TISS) for comparing descriptor and compound vectors. We developed a “titration-invariant” similarity score (TISS) to assess the similarity of compounds independent of the starting point of their titration series. The TISS between two compounds is calculated in three steps: (1) we define the notion of a titration sub-series for each compound to account for different possible starting concentrations (FIGS. 35 and 36B); (2) we define a correlation for pairs of these sub-series (FIG. 36B); (3) we define a similarity measure derived from the strongest correlation over a determined range of these sub-series (FIG. 36B).
(1) For each compound c, the complete set of z-scores across all descriptors and titrations defines a DxT-dimensional vector: Xc=(zc,l,l, . . . , zc,D,l, . . . , zc,l,T, . . . , zc,D,T), where D is the number of descriptors (=93) and T is the number of titrations (=13). In order to allow comparisons of compounds with different titration starting points, we define titration sub-series as follows: Xc(s)=(zc,l,l, . . . , zc,D,l, . . . , zc,l,T−s, . . . , zc,D,T−s) and Xc(−s)=(zc,l,s, . . . , zc,D,s, . . . , zc,l,T, . . . , zc,D,T). Intuitively, by truncating starting or ending titrations, these definitions allow us to “shift” the starting point for the titration series.
(2) For all compound vectors Xi and Xj, we define their s-correlation: xij(s)=<Xi, Xj>(s)=<Xi(s), Xj(−s)>/(∥Xi(s)∥ ∥Xj(−s)∥)
(we use the standard notation <A, B>=ΣiAiBi and ∥A∥^2=<A,A>). Thus, <Xi, Xj>(0) measures the standard correlation of vectors Xi and Xj, while <Xi, Xj>(1) drops the first titration for compound Xj and the last for Xi before measuring their correlation. For each s, we built a 200×200 such correlation matrix X(s)=(xij(s)) using all of the compounds from each of the two replicates.
(3) Given a range −S≦s≦S, we wish to look for the value of s that gives the highest correlation between two vectors.
Clustering compound and descriptor vectors. We performed standard hierarchical clustering of replicate-averaged compound (FIG. 33) or descriptor (FIG. 39) vectors using the pdist and linkage functions in Matlab. pdist was defined by the TISS for each pair of vectors. […] Compound 50 was not present in all datasets and so was also excluded.

transcription = assay: Preliminary in vitro transcription experiments; format: biochemical
[3] = HeLa cells, 20 hrs, thirteen 3-fold dilutions, Y = profile response above signal threshold
[4] = unsupervised hierarchical clustering of the 61 responsive compounds

Molecule	Used in clustering (FIG. 33) [1, 3]	clustering of compound profile by TISS (FIG. 33) [2, 4]	response of compound profile (heat plot) ([1]; HeLa, 20 hrs)	also measured
CC[C@@]1(O)C(=O)OCc2c1cc1n(c2=O)Cc2cc3ccccc3nc2-1 [Compound 10, Camptothecin]	Y	–	–	relation of dose-dependent p53 and cFos responses in single cells (p53 and cFos): anti-correlated; anillin nuclear level ([1]; HeLa, 20 hrs, G2 arrested state): marked nuclear accumulation; total DNA content / cell cycle response ([1]; HeLa, 20 hrs, as drug concentration increases): arrest with S/G2 DNA content; apoptosis ([1]; HeLa, 20 hrs, at the highest concentrations): widely induced; p53 induction ([1]; HeLa, 20 hrs, concentrations sufficient to promote G2 arrest): much less so; p53 induction ([1]; HeLa, 20 hrs, high concentrations): strongly induced; p53 response (z-score heat plot) ([1]; HeLa, 20 hrs, low doses, FIG. 31C): statistically significant responses
CC(C)C[C@@H](C=O)NC(=O)[C@H](CC(C)C)NC(=O)[C@H](CC(C)C)NC(=O)OCc1ccccc1 [Compound 38, MG132] (Cbz-Leu-Leu-Leu-aldehyde)	Y	–	–	relation of dose-dependent p53 and cFos responses in single cells (p53 and cFos): increased correlated induction
Cn1cnc2c(NCc3ccccc3)nc(NCCO)nc21 [Compound 42, Olomucine]	Y	did cluster	–	–
CC(C)[C@H](CO)Nc1nc(Nc2cccc(Cl)c2)c2ncn(C(C)C)c2n1 [Compound 46, Purvalanol A]	Y	did cluster	–	–
CC[C@H](CO)Nc1nc(NCc2ccccc2)c2ncn(C(C)C)c2n1 [Compound 49, Roscovitine]	–	–	–	clustering of compound profile by TISS (FIG. 33) [2]: did cluster; Used in clustering (FIG. 33) [1]: Y
NC(=O)NO [Compound 94, Hydroxyurea]	Y	clustered closely with their unblinded counterparts and compounds of similar reported mechanism	significant responses	–
CC[C@H]1CN2CCc3cc(OC)c(OC)cc3[C@@H]2C[C@@H]1C[C@H]1NCCc2cc(OC)c(OC)cc21 [Compound 96, Emetine]	Y	clustered closely with their unblinded counterparts and compounds of similar reported mechanism	significant responses	–
O=C(CCCCCN1C(=O)c2cccc3cccc(c23)C1=O)NO [Compound 97, Scriptaid]	Y	clustered closely with their unblinded counterparts and compounds of similar reported mechanism	significant responses	–
CC[C@H](C)[C@H]1NC(=O)[C@@H](NC(=O)[C@@H](CC(C)C)N(C)C(=O)[C@@H]2CCCN2C(=O)C(C)O)[C@@H](C)OC(=O)[C@H](Cc2ccc(OC)cc2)N(C)C(=O)[C@@H]2CCCN2C(=O)[C@H](CC(C)C)NC(=O)[C@@H](C)C(=O)[C@H](C(C)C)OC(=O)C[C@@H]1O (stereo partly shown) [Compound 98, Didemnin B]	Y	clustered with ribosome inhibitors	–	–
CCCCCc1ccc(-c2ccc(/C=C/C(N)=O)cc2)nc1 [Compound 100, Concentramide]	Y	difficult to interpret	strong responses	–
Austocystin [Compound 99]	Y	clusters with transcription and translation inhibitors	strong responses	inhibition of transcription in vitro (transcription): inhibits transcription in vitro
